Consider one substance from patent US9221900B2, “Methods for identifying safe and functional humanized antibodies” (AC IMMUNE S.A., priority 2010, dated 2015).

The subject of data set [1] is amyloid plaques in human AD brain sections. The data set can be described thus: Immunohistochemistry of amyloid plaques in human AD brain sections. The format is binding. The text has this:
Paraffin mounted temporal lobe brain sections (20 μm) from an AD patient and from an age-matched non-AD control (Tissue Solutions, Clydebank, UK) were used for immunohistochemistry staining. […] A goat-anti-human biotinylated IgG was used as a secondary antibody. Staining was done with diaminobenzidin (Dako, Glostrup, Denmark) and mounting using Eukitt mounting medium. Images were acquired on a LSM 700 inverted microscope from Zeiss.

For data set [2], the target named is Aβ1-42 binding to recombinant human ApoE4 (Homo sapiens, UniProt P05067). The data set can be described thus: ELISA of Aβ1-42 binding to recombinant human ApoE4. The format is biochemical. The note with it: saturating concentrations of ApoE4 and Aβ1-42. From the text:
FIG. 9 provides a graph corresponding to the experiments described in Example 6.2. […] Percent inhibition of signal without an IgG monoclonal antibody is shown. […] The interaction site of ApoE4 with Aβ1-42 requires amino acids 18 to 28 (Strittmatter et al., 1993).
A general note: In an ELISA, binding on a coated surface is turned into a signal by an enzyme label.

In data set [3] the test system is mouse embryonic cortical neurons. The data set can be described thus: Aβ1-42-induced degeneration of embryonic cortical neurons, TuJ1 immunofluorescence. It is filed as cell-based. The note with it: Aβ1-42 with MABT for four days. The method, then:
FIG. 2 provides graphs and immunocytochemical images corresponding to the experiments described in Example 6.3. […] An MTT assay was used to determine cell viability as described in the Methods section. The means (±SEM) of five independent experiments are shown. *P<0.05, **P<0.01. […] Neurotoxicity following extended Aβ1-42 oligomer treatment was tested by morphological analyses (C).
A non-specific IgG monoclonal antibody was used as a control in all experiments.
The cytotoxicity of Aβ1-42 oligomers was tested on mixed cortical cultures at DIV 5. All antibodies, at a final concentration of 100 μg/mL, were co-incubated with Aβ1-42 oligomers for 30 min in serum-free cell culture medium at 37° C. before treatment of cells. For some experiments, mixed cortical cultures were pre-treated for 1 h with 1 μM SB239063, a potent second-generation p38 inhibitor, before treatment with Aβ1-42 oligomers. […] Briefly, for the last 3 h of treatment, cells grown in 96-well plates (Costar) were incubated with the MTT dye solution and the generation of a blue formazan product was measured by reading absorbance at 570 and 690 nm using a plate reader (Tecan). […] A FITC-labeled secondary antibody was used to visualize microtubules using fluorescence microscopy.

Data set [4] deals with primary cortical cultures. The data set can be described thus: Intracellular Aβ1-42 accumulation ELISA on trypsin-cleared cells. The format is cell-based, rat. The method, then:
FIG. 3 provides graphs and immunocytochemical images corresponding to the experiments described in Example 6.4. Aβ1-42 oligomer binding to neurites was reduced by the anti-Aβ IgG4 monoclonal antibody. […] Green indicates staining with TuJ1, red indicates labeling with anti-Aβ (clone 6E10), and blue indicates staining with DAPI. […] Quantitative measures of fluorescence are shown for 30 min treatment and 18 h treatment (B). Mean results (±SEM) of two experiments are shown. […] Cortical cultures from P1 rats were treated as described for (A), except that Aβ1-42 tagged with HyLite Fluor-488 was used (C). Aβ1-42-labeled samples are shown in the upper panel and DAPI-stained samples are shown in the lower panel. […] Aβ1-42 fluorescence was quantified, with the mean (±SD) of the two independent experiments shown (D). […]
The intracellular accumulation of Aβ1-42 was determined in trypsin-cleared cells using an ELISA assay.
To measure intracellular Aβ1-42 accumulation by ELISA, primary cortical cultures were treated in 6-well cell-culture plates (Costar) after which they were washed and trypsin-cleared (Bateman et al., 2007) before lysis in cell-lysis buffer consisting of 50 mM Tris-HCl (pH 8.0), 150 mM NaCl, 5 mM EDTA, 1 mM sodium orthovanadate, 1% Triton X-100, and containing protease- and phosphatase-inhibitor cocktails. Protein concentration was determined by the BCA assay (Pierce). […]

The subject of the next data set is enriched microglia. The data set can be described thus: TNFα release by enriched microglia. The format is cell-based, rat. Conditions: 24 h of treatment. The method, then: FIG. 6 provides a graph corresponding to the experiments described in Example 6.6. […] The release of TNFα by enriched microglia was measured following 24 h of treatment (see Methods). The mean (±SEM) of three independent experiments is shown. Statistical analysis was done using one-way ANOVA followed by Tukey post-hoc multiple comparison.
To link the increased microglia activity more directly to a downstream pro-inflammatory readout, the TNFα release by primary cell cultures enriched for microglia was measured ([…] Iba1^+, not shown). The release of pro-inflammatory TNFα by enriched microglia when treated with Aβ1-42 oligomers was reduced in the presence of all anti-Aβ monoclonal antibodies tested (FIG. 6). […] Thus, an anti-Aβ IgG4 monoclonal antibody may have a more desirable profile as compared to an anti-Aβ IgG1 monoclonal antibody, combining neuroprotective effects and ability to promote Aβ engulfment by microglia with limited microglial activation.
Rat cortical cultures enriched for microglia (>60% Iba1^+ of total DAPI^+ cells) were treated with 10 μM Aβ1-42 oligomers with or without 100 μg/mL antibodies for 6 h and 24 h. LPS (Sigma) at 1 μg/mL was used as a positive control stimulus. […]

Chain of Aβ1-42 binding to recombinant human ApoE4 (P05067 672-713 limits assumed): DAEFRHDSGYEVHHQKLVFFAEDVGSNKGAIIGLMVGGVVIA

As to “MABT: humanized anti-Aβ monoclonal antibody of IgG4 isotype, affinity matured and humanized form of mouse mMABT”, in data set [1], the “binding to amyloid plaques” value was “immunodecorated”. In addition, the “inhibition of the Aβ1-42 and ApoE4 interaction” value in data set [2] is “over 80%”. The “neuronal morphology after Aβ1-42 treatment” value in data set [3] is on record as “appeared similar to control cells”. Further, in data set [4], the “reduction of Aβ1-42 oligomer internalization (intracellular accumulation)” value was “more than 60%”. The “release of TNFα by enriched microglia treated with Aβ1-42 oligomers” value in the data set with enriched microglia is “greatest effect”.
